In patent US20070299102A1, “Diphenyl Ox-Indol-2-One Compounds and Their Use in the Treatment of Cancer” (Topo Target A/S, priority 2004, published 2007):
Entries after “also recorded” stand apart in the source; their conditions may differ.

How the values were obtained:
MDA-MB-468 cells = assay: Protein synthesis, 14C-Leucine incorporation (Cytostar-T); format: cell-based, human; settings: all time-points
Protocol: (§1) As described in “Leucine Uptake [^14C] Cytostar-T assay, Amersham Biosciences” (CFA773).
(§2) And incubated overnight in growth medium. The next day medium was carefully aspirated (8-channel Vacuboy) and 50 μL of fresh pre-warmed medium (10% FCS, 10 mM HEPES pH 7.2-7.5) was added. Cells were allowed to equilibrate at 37° C. for 60 min. Test compounds were added in 50 μL medium and ^14C-leucine was added in 100 μL medium (0.5 μCi mL−1 final). Plates were sealed with transparent, adhesive foil. Plates were then incubated in a 37° C. for 6 h in a humidified incubator. Incorporation of radioactive leucine into proteins (a measure of protein synthesis) was then read by coincidence scintillation (counts per minute (CPM)) using a Wallac Microbeta detector at the indicated time-intervals. A reading a t=0 (5 min after sealing plates) for each well is subtracted as background.

MDA-MB-231 cells = assay: as above; format: cell-based, human; settings: all time-points
Protocol: as §1, §2

MCF-7 tumours = assay: Xenograft studies using MCF-7 tumours; format: in vivo, mice
Protocol: Nude balb/c mice weighing 25-45 grams are implanted with MCF-7 tumours by subcutaneous implantation in both flanks. […] Tumour volume is determined once or twice/week.

[1] = test system: PC-3 prostate cancer cell line; assay: Alamar Blue cell proliferation assay; format: cell-based, human
Protocol: (§3) Cell culture: All cell lines except MCF10A are maintained in RPMI medium containing 10% foetal Bovine Serum (FBS) 100 U/ml penicillin, and 100 μg/ml streptomycin. MCF10A is maintained in mammary epithelial growth medium (MEGM) with singlequot addition (BPE, hydrocortisone, hEGF, insulin, gentamicin/amphotericin-B) (Clonetics/Cambrex Bio Science). All cell lines are incubated at 37° C., 5% CO2, and 95% humidity.
(§4) Alamar Blue cell proliferation assay: Cells are plated in black cell culture treated Packard/Perkin Elmer 96-viewplates in 100 μl/well RPMI medium containing […], 100 U/ml penicillin, and 100 μg/ml streptomycin. Cell proliferation has been estimated in triplicate for all cell lines in medium containing either 1% FBS or 10% FBS. […]
(§5) The number of viable cells is estimated using an Alamar Blue assay that measures mitochondrial activity. […] Alamar Blue signal is read in a fluorescence plate reader using a 590 nm emission filter and a 530 nm excitation filter.
(§6) Data handling/calculations: Data are normalised to values from 0% activity (S0) to 100% activity (Smax). Average values for S0 and Smax are calculated and used to calculate percent activity (PCTACT) in the assays by the formula: PCTACT=(Xraw−Smax)/(S0−Smax)*100.

MDA-MB-468 tumours = assay: Xenograft studies using MDA-MB-468 tumours; format: in vivo, mice
[2] = test system: panel of prostate cancer cell lines; assay: Alamar Blue cell proliferation assay, summary over the prostate panel; format: cell-based; settings: 10% FBS
Protocol: as §3, §4, §5, §6

[3] = test system: panel of human breast cancer cell lines; assay: Alamar Blue cell proliferation assay, summary over the breast panel; format: cell-based; settings: 10% FBS; FIGS. 9, 10 and 11
Protocol: as §3, §4, §5, §6

[4] = test system: T47-D breast cancer cell line; assay: Alamar Blue cell proliferation assay; format: cell-based; settings: Homo sapiens, T47D, 72 h, 10% FBS, read-out: EC50 (nM), IC50 values for inhibition of cell proliferation
Protocol: as §3
(§7) Alamar Blue cell proliferation assay: Cells are plated in black cell culture treated Packard/Perkin Elmer 96-viewplates in 100 μl/well RPMI medium containing […], 100 U/ml penicillin, and 100 μg/ml streptomycin. Cell proliferation has been estimated in triplicate for all cell lines in medium containing either 1% FBS or 10% FBS. The day after plating, the growth medium is changed to either 100 μl/well RPMI containing 1% FBS, 100 U/ml penicillin, 100 μg/ml streptomycin and 25 μg/ml gentamicin or to 100 μl/well RPMI containing 10% FBS, 100 U/ml penicillin, 100 μg/ml streptomycin and 25 μg/ml gentamicin. Compounds are added in 9 point half-log dilution series at concentrations indicated in the graphs. […] Briefly, compounds are diluted in compound plates in growth medium containing either 1% FBS or 10% FBS corresponding to the medium in the plates. Compounds are transferred to the cell plates by transfer of 100 μl/well, resulting in a total volume of 200 μl/well containing compound at concentrations indicated in graphs and 0.25% DMSO. Terfenedine is used as a control for maximal cell kill in wells containing 50 μM terfenedine and 0.5% DMSO (Smax). Negative control wells (So) contain medium with 0.25% DMSO.
(§8) After compound addition cell plates are incubated undisturbed for 72 hours at 37° C., 5% CO2, and 95% humidity.
(§9) The number of viable cells is estimated using an Alamar Blue assay that measures mitochondrial activity. The medium is decanted and replaced with 150 μl/well RPMI medium without phenol-red containing 100 U/ml penicillin, and 100 μg/ml streptomycin and 10% Alamar Blue. The plates are placed in the incubator at 37° C., 5% CO2, and 95% humidity for 2 hours. Then, plates are moved to a table and allowed to cool to room temperature without stacking the plates. Alamar Blue signal is read in a fluorescence plate reader using a 590 nm emission filter and a 530 nm excitation filter.
as §6

[5] = test system: MCF7 breast cancer cell line; assay: Alamar Blue cell proliferation assay; format: cell-based; settings: Homo sapiens, MCF7, 72 h, MCF7, 10% FBS, read-out: EC50 (nM), IC50 values for inhibition of cell proliferation
Protocol: as §3, §7, §8, §9, §6

[6] = test system: non-transformed human breast epithelial cell line MCF10A; assay: Alamar Blue cell proliferation assay; format: cell-based; settings: MCF-10A, serum-free MEGM medium, 72 hours, read-out: EC50 (nM), IC50 values for inhibition of cell proliferation
Protocol: as §3, §7, §8, §9, §6

[7] = test system: HCC-1954 breast cancer cell line; assay: Alamar Blue cell proliferation assay; format: cell-based; settings: Homo sapiens, HCC1954, 72 h, HCC-1954, 10% FBS, read-out: EC50 (nM), IC50 values for inhibition of cell proliferation
Protocol: as §3, §7, §8, §9, §6

[8] = test system: DU-145 prostate cancer cell line; assay: Alamar Blue cell proliferation assay; format: cell-based; settings: Homo sapiens; DU-145, 10% FBS, 72 hours; read-out: EC50 (nM); IC50 values for inhibition of cell proliferation
Protocol: as §3, §7, §8, §9, §6

[9] = test system: MDA-MB-453 breast cancer cell line; assay: Alamar Blue cell proliferation assay; format: cell-based; settings: Homo sapiens, MDA-MB-453, 72 h, MDA-MB-453, 10% FBS, read-out: EC50 (nM), IC50 values for inhibition of cell proliferation
Protocol: as §3, §7, §8, §9, §6

[10] = test system: SKBr-3 breast cancer cell line; assay: Alamar Blue cell proliferation assay; format: cell-based; settings: Homo sapiens, SK-BR-3, 72 h, SKBr-3, 10% FBS, read-out: EC50 (nM), IC50 values for inhibition of cell proliferation
Protocol: as §3, §7, §8, §9, §6

[11] = test system: MDA-MB-231 breast cancer cell line; assay: Alamar Blue cell proliferation assay; format: cell-based; settings: Homo sapiens; MDA-MB-231, 10% FBS, 72 hours; read-out: EC50 (nM); IC50 values for inhibition of cell proliferation
Protocol: as §3, §7, §8, §9, §6

[12] = test system: PC-3/M prostate cancer cell line; assay: Alamar Blue cell proliferation assay; format: cell-based; settings: Homo sapiens, 10% FBS, 72 hours, read-out: EC50 (nM), IC50 values for inhibition of cell proliferation
Protocol: as §3, §7, §8, §9, §6

[13] = test system: ZR75-1 breast cancer cell line; assay: Alamar Blue cell proliferation assay; format: cell-based; settings: Homo sapiens, ZR-75-1; ZR75-1, 10% FBS, 72 hours; read-out: EC50 (nM); IC50 values for inhibition of cell proliferation
Protocol: as §3, §7, §8, §9, §6

[14] = test system: MDA-MB-468 breast cancer cell line; assay: Alamar Blue cell proliferation assay; format: cell-based; settings: Homo sapiens, MDA-MB-468, 72 h, MDA-MB-468, 10% FBS, read-out: EC50 (nM), IC50 values for inhibition of cell proliferation
Protocol: as §3, §7, §8, §9, §6

[15] = test system: MDA-MB-435S breast cancer cell line; assay: Alamar Blue cell proliferation assay; format: cell-based; settings: Homo sapiens, 10% FBS, 72 hours, read-out: EC50 (nM), IC50 values for inhibition of cell proliferation
Protocol: as §3, §7, §8, §9, §6

[16] = test system: BT-474 breast cancer cell line; assay: Alamar Blue cell proliferation assay; format: cell-based; settings: Homo sapiens, BT-474, 72 h, BT-474, 10% FBS, read-out: EC50 (nM), IC50 values for inhibition of cell proliferation
Protocol: as §3, §7, §8, §9, §6

[17] = test system: LnCaP prostate cancer cell line; assay: Alamar Blue cell proliferation assay; format: cell-based; settings: Homo sapiens, 10% FBS, 72 hours, read-out: EC50 (nM), IC50 values for inhibition of cell proliferation
Protocol: as §3, §7, §8, §9, §6

[18] = test system: BT-549 breast cancer cell line; assay: Alamar Blue cell proliferation assay; format: cell-based; settings: Homo sapiens, BT-549, 72 h, BT-549, 10% FBS, read-out: EC50 (nM), IC50 values for inhibition of cell proliferation
Protocol: as §3, §7, §8, §9, §6

[19] = test system: mTOR pathway proteins (p70S6K, S6, 4E-BP1, AKT, cyclin D3) in MDA-468 cells; assay: Western Blots on proteins involved in translational control; format: cell-based, human; settings: MDA-468, 24 hour incubation
Protocol: 16-24 hours after, the growth medium were shifted to growth medium containing compounds.
After 24 or 48 hours incubation with compounds, cells were washed with ice cold PBS buffer and harvested in lysis buffer: Cytobuster reagent (Novagen) containing phosphatase inhibitor cocktail 1 and 2 and protease inhibitor cocktail (Sigma). Samples containing an equal amount of protein were loaded onto 7% Tris Acetate gels, 10% Bis-Tris in MES buffer or 12% Bis-Tris gels using MOPS running buffer (Invitrogen). Following electrophoresis the samples were blotted onto a PVDF membrane (Invitrogen). For membrane blocking and antibody incubations of p70 S6K, Phospho-p70 S6K (Thr389), PathscanI and S6 antibodies (Cell Signalling Technology) a buffer containing 0.2% Tween-20, 5% non-fat dry milk, 5% FBS, in Tris buffered Saline (TBS) were used. For immunoblotting of 4EBP1, Phospho 4EBP1 (Thr37/46), Phospho 4EBP1 (Ser65) (Cell Signalling Technology) and Cyclin D3 (Santa Cruz) a protocol from Cell Signalling Technology were used. Cell Signalling Technology blocking buffer contains 0.1% Tween-20, 5% non fat dry milk in TBS and primary antibody dilution buffer contains 0.1% Tween-20, 5% BSA in TBS. Before adding primary antibody dilution buffer to the membranes, the blots were rinsed briefly in 0.1% Tween-20. […] Peroxidase activity was detected using the ECL detection system (Amersham Biosciences).

[20] = monotherapy, PO daily for 15 days or IV weekly for 4 weeks

## COc1ccc(C[C@H]2NC[C@H](O)[C@H]2OC(C)=O)cc1 [Anisomycin]
MDA-MB-468 cells
  Effect of control compounds on 14C-Leucine incorporation: completely inhibit
MDA-MB-231 cells
  Effect of control compounds on 14C-Leucine incorporation: completely inhibit

## O=C1Nc2c(ccc(F)c2F)C1(c1ccc(O)cc1)c1ccc(O)cc1 [Compound 41, 6,7-Difluoro-3,3-bis-(4-hydroxy-phenyl)-1,3-dihydro-indol-2-one]
MCF-7 tumours; [20]
  Tumour size / growth, MCF-7 xenograft: reduces the rate of MCF-7 human breast cancer tumour cell growth; also recorded: reduces the size of MCF7 tumours
MCF-7 tumours; monotherapy, PO or IV
  Tumour regression, MCF-7 xenograft: induces tumour regression at all doses tested; also recorded: tumour regression is noted using all doses tested
MCF-7 tumours; mouse, in vivo
  Effect compared with paclitaxel, MCF-7 xenograft: more pronounced than following administration of paclitaxel; also recorded: appears to be greater than paclitaxel
  Per-oral versus intravenous dosing, MCF-7 xenograft: equally effective by the per-oral and intravenous dosing
[1]; 10% FBS
  Effect on proliferation of PC-3: inhibit the proliferation
MDA-MB-468 tumours; [20]
  Rate of tumour growth, MDA-MB-468 xenograft: reduces the rate of MDA-MB-468 human breast cancer tumour cell growth
MDA-MB-468 tumours; monotherapy, PO or IV
  Tumour regression, MDA-MB-468 xenograft: induces tumour regression at all doses tested; also recorded: more pronounced tumour regression at all doses tested
MDA-MB-468 tumours; mouse, in vivo
  Effect compared with paclitaxel, MDA-MB-468 xenograft: more pronounced than following administration of paclitaxel; also recorded: more effective than paclitaxel
  Per-oral versus intravenous dosing, MDA-MB-468 xenograft: equally effective by per-oral and intravenous dosing

## C[C@@H]1C[C@@H]([C@H](O)CC2CC(=O)NC(=O)C2)C(=O)[C@@H](C)C1 [Cycloheximide]
MDA-MB-468 cells
  Effect of control compounds on 14C-Leucine incorporation: completely inhibit
MDA-MB-231 cells
  Effect of control compounds on 14C-Leucine incorporation: completely inhibit

## O=C1Nc2ccccc2C1(c1ccc(O)cc1)c1ccc(O)cc1 [Oxyphenisatine]
[2]
  Potency relative to Compound 3, prostate cell line panel: lower potency than Compound 3
[1]; Homo sapiens, PC-3, 10% FBS, 72 hours, read-out: EC50 (nM), IC50 values for inhibition of cell proliferation
  IC50: 899 nM
[3]
  Potency relative to Compound 3, breast cell line panel: slightly lower in potency
[4]
  IC50: 324 nM
[5]
  IC50: 517 nM
[6]
  IC50: > 3000 nM
[7]
  IC50: 912 nM
[8]
  IC50: > 3000 nM
[9]
  IC50: 228 nM
[10]
  IC50: 527 nM
[11]
  IC50: > 3000 nM
[12]
  IC50: > 3000 nM
[13]
  IC50: 285 nM
[14]
  IC50: 935 nM
[15]
  IC50: > 3000 nM
[16]
  IC50: 324 nM
[17]
  IC50: 790 nM
[18]
  IC50: 859 nM

## CO[C@H]1C[C@@H]2CC[C@@H](C)[C@@](O)(O2)C(=O)C(=O)N2CCCC[C@H]2C(=O)O[C@H]([C@H](C)C[C@@H]2CC[C@@H](O)[C@H](OC)C2)CC(=O)[C@H](C)/C=C(\C)[C@@H](O)[C@@H](OC)C(=O)[C@H](C)C[C@H](C)/C=C/C=C/C=C/1C [rapamycin]
[19]
  AKT phosphorylation on Ser473 (Western blot): not inhibited
